In data set [1] the test system is C57BL/6J mice. The experiment in a line: 55 °C warm-water tail-withdrawal assay (antinociception). Type of data set: in vivo, mouse. Conditions: i.c.v. The procedure: For intracerebroventricular (i.c.v.) administration, the 1968-series compounds were dissolved in dimethyl sulfoxide (DMSO), followed by the addition of sterile saline (0.9%) so that the final vehicle was 50% DMSO and 50% saline, and the i.c.v. injections were performed as described previously. For per os (p.o.) administration, 1968-4 and 1968-22 were administered in 10% Ethanol/10%Tween-80/80% 0.9% saline. All solutions for animal administration were prepared fresh daily.
Antinociception was calculated according to the following formula: % antinociception = 100 × (test latency − control latency)/(15 − control latency). Tail-withdrawal data points are the means of 8–16 mice, unless otherwise indicated, with SEM shown by error bars.
All dose–response lines were analyzed by regression, and ED50 (effective dose producing 50% antinociception) values and 95% confidence intervals (C.I.) were determined using individual data points from graded dose–response curves with Prism 8.0 software (GraphPad, La Jolla, CA, USA). Percent antinociception was used to determine within group effects and to allow comparison to baseline latency in tail-withdrawal experiments. The statistical significance of differences between ED50 values was determined by evaluation of the ED50 value shift via nonlinear regression modeling with Prism software. Significant differences in behavioral data were analyzed by ANOVA (one-way or two-way with repeated measures (RM), as appropriate). Significant results were further analyzed with Sidak’s, Tukey’s, or Dunnett’s multiple comparison post hoc tests, as appropriate. Data for conditioned place preference experiments were analyzed by two-way RM ANOVA, with analyses examining the main effect of the conditioned place preference phase (e.g., pre- or post-conditioning) and the interaction of drug pretreatment. Significant effects were further analyzed using Sidak’s HSD post hoc testing. All data are presented as mean ± SEM, with significance set at p < 0.05.

For data set [2], the system named is C57BL/6J mice. Kind of data set: Respiration rate in CLAMS/Oxymax system. It is filed as in vivo, mouse. To be noted: 100 nmol, i.c.v. The procedure:
(§1) Respiration rates (in breaths per minute) and animal locomotive activity (as ambulations) were assessed using the Oxymax/CLAMS system (Columbus Instruments, Columbus, OH), as described previously. Mice were habituated to their individual sealed housing chambers for 60 min before testing. Mice were administered 1968-22 (0.3–100 nmol, i.c.v.), morphine (100 nmol, i.c.v.), or vehicle, as indicated, and five min later confined to the CLAMS testing chambers. Pressure monitoring within the sealed chambers measured frequency of respiration. Infrared beams located in the floor measured locomotion as number of beam breaks. Respiration and locomotive data were averaged over 20 min periods for 120 min post-injection of the test compound. Data are presented as % vehicle response ± SEM, ambulation or breaths per minute.

In data set [3] the test system is C57BL/6J mice. Kind of data set: Ambulation (locomotor activity) in CLAMS/Oxymax system. It is filed as in vivo, mouse. Conditions: 100 nmol, i.c.v. As for the experimental part: as §1
The test system of data set [4] is C57BL/6J mice. Kind of data set: Conditioned place preference / aversion. Conditions: 10 mg/kg, i.p.; two days of place conditioning. It is filed as in vivo, mouse.
The test system of data set [5] is C57BL/6J mice. The experiment in a line: Acute antinociceptive tolerance determination.
Data set [6] addresses κ opioid receptor. Also noted: method as in PMID 25996309. To be noted: cited from earlier work.
Data set [7] concerns the target δ opioid receptor. On the set-up: method as in PMID 25996309. Conditions: cited from earlier work.

Data on two compounds can be found in article PMC9455983 (International Journal of Molecular Sciences, 2022).

For `CN1CC[C@]23c4c5ccc(O)c4O[C@H]2[C@@H](O)C=C[C@H]3[C@H]1C5` [Morphine, morphine, reference compound], the “time of peak antinociception after i.c.v. administration” value in data set [1] came to 30 min. For the same compound, the “ED50 (and 95% Confidence Interval (C.I.)) Values, i.c.v. (nmol)” value in data set [1] (antinociception at peak response, mice, * ED50 estimated where maximum antinociception not achieved) is recorded as 3.09 (2.76–3.50) nmol. In data set [2], the “effect on respiration rate vs vehicle” value is on record as “significant, time-dependent respiratory depression”. For the same compound, the “effect on ambulation vs vehicle” value in data set [3] was “elevated ambulations”. Moreover, the place conditioning result in data set [4] was “significant place preference”. For the same compound, the “fold rightward shift in dose-response curve of the second dose (acute tolerance)” value in data set [5] (ED50 dose i.c.v. at 0 h, graded doses at 8 h) was found to be 7.71 fold. Moreover, the “ED50 (95% C.I.) of second dose at 8 h” value in data set [5] (i.c.v., after ED50 pretreatment at 0 h) is given as 23.8 (17.0–31.6) nmol.
Regarding `CC(C)C[C@H]1CN2C(=CC3=NC[C@H](C(C)C)N3C[C@@H]2Cc2ccc(O)cc2)N1CCc1ccccc1` [Diimidazodiazepine 14], the Ki is 23 ± 12 nM in data set [6] and 32 ± 6 nM in data set [7].
